Data on two molecules can be found in PMC5784132, “Investigation of 20S-hydroxyvitamin D3 analogs and their 1α-OH derivatives as potent vitamin D receptor agonists with anti-inflammatory activities” (Scientific Reports, 2018).

In one data set the test system is CYP24A1 gene expression. The experiment in a line: RT-PCR analysis of CYP24A1 expression in HaCaT cells. Format: cell-based. Conditions: Homo sapiens, 100 nM, 24 h treatment, read-out: relative mRNA level for CYP24A1 versus vehicle control. The procedure: Figure 7 20S(OH)D3 analogs upregulate the expression of CYP24A1 encoding the vitamin D catabolic enzyme, CYP24A1, with varying efficiencies. […] The mRNA was isolated and the RT-PCR was performed using specific primers for the CYP24A1 gene (see Methods). Data are presented as mean ± SE (n = 3). *p < 0.05, **p < 0.01 and ***p < 0.001 compared with the control.
HaCaT cells were purchased from Thermo Fisher Scientific (Waltham, MA, USA) and were cultured as for the VDRE reporter assay. The RNA from HaCaT keratinocytes treated with secosteroids or from DMSO controls was isolated using the Absolutely RNA Miniprep Kit (Stratagene, La Jolla, CA, USA). Reverse transcription (100 ng RNA/reaction) was performed with the Transcriptor First Strand cDNA Synthesis Kit (Roche Inc., Mannheim, Germany). Real-time PCR was performed using cDNA diluted 10-fold in sterile water and a SYBR Green PCR Master Mix. The primers for both forward and reverse strands for CYP24A1 were designed based on the mouse and rat sequences using Primer Quest software ([…], San Jose, CA, USA). Reactions (in triplicate) were performed at 50 °C for 2 min, 95 °C for 10 min and then 40 cycles of 95 °C for 15 s, 60 °C for 30 s and 72 °C for 30 s. Data were collected and analyzed on a Roche Light Cycler 480. The amount of the final amplified product for each gene was compared and normalized to the amount of β-actin product as a housekeeping gene using a comparative Ct method.

Another data set concerns the target T1, mouse CYP27B1 (Mus musculus, UniProt O35084).
T1 construct: made in house; host or cells: E. coli
T1 sequence (O35084 1-507): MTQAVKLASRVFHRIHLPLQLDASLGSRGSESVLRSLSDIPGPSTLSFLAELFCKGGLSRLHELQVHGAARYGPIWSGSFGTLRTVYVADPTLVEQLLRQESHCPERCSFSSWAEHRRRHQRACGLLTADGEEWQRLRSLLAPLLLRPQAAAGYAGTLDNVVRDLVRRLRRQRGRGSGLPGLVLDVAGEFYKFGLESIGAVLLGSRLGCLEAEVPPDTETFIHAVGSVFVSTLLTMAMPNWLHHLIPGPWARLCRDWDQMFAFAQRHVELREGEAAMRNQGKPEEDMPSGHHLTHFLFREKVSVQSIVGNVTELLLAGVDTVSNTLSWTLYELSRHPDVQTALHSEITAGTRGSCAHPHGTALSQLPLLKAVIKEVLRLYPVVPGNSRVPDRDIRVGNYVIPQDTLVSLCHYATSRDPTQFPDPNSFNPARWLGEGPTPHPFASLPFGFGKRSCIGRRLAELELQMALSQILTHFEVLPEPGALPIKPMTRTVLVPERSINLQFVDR
The experiment in a line: Metabolism (1α-hydroxylation) of analogs by mouse CYP27B1. Format: in vitro ADME. On the procedure: In order to make the 1α-OH derivatives of the 20S(OH)D3 analogs enzymatically, and to assess their likely capacity to be 1α-hydroxylated in vivo, the ability of mouse CYP27B1 to hydroxylate these metabolites was examined. 25(OH)D3, the major natural substrate for CYP27B1[2],[30], was included for comparison. The 20S(OH)D3 analogs were incorporated into phospholipid vesicles and incubated with CYP27B1, then the extent of their metabolism was determined by HPLC (Table 2). All analogs tested except 33 were metabolized by CYP27B1. In each case only a single metabolite was produced, assumed to be the 1α-OH derivative based on the known high specificity of the enzyme for the 1α-position[24],[30],[31]. […] Metabolism of 4 was almost twice that of 20S(OH)D3 and metabolism of 23 almost three fold. Thus, the modifications to C24 and/or C25 seen in 13, 4 and 23 enhanced their ability to be metabolized by CYP27B1. […] In contrast, the introduction of an amide linkage into the side chain, as in 33, prevented its hydroxylation by CYP27B1.
Rat CYP24A1, mouse CYP27B1 and adrenodoxin and human adrenodoxin reductase were expressed in E. coli and purified as described before[28],[30],[35]. To test metabolism of each analog, they were incorporated into phospholipid vesicles made from dioleoyl phosphatidylcholine and cardiolipin by sonication, as before[24],[28]. The substrates in vesicles (510 µM phospholipid) were incubated at 37 °C with either CYP24A1 (0.14 µM) or CYP27B1 (0.8 µM) in a reconstituted system containing adrenodoxin (15 µM) and adrenodoxin reductase (0.4 µM). Samples from incubations with CYP24A1 were extracted with dichloromethane and analysed by HPLC using a 25 cm Grace Alltima C18 column, as before[27],[28]. Products (except 33) were separated using an acetonitrile on water gradient (45% to 100% for 20 min then 100% acetonitrile for 40 min at a flow rate of 0.5 mL/min). For the more polar 33, the acetonitrile gradient was 30% to 100% acetonitrile for 30 min then 100% acetonitrile for 20 min, at 0.5 mL/min. Products from incubations with CYP27B1 were similarly extracted with dichloromethane and analyzed by reverse phase HPLC using a 15 cm Grace Smart C18 column and an acetonitrile in water gradient (10 min 45% to 100% acetonitrile then 20 min at 100% acetonitrile, at 0.5 mL/min).

Regarding `C=C1CC[C@H](O)C/C1=C/C=C1\CCC[C@@]2(C)[C@H]1CC[C@@H]2[C@@](C)(O)CCCC(C)C` [20S(OH)D3, 20S-hydroxyvitamin D3], the fold induction at 0.1 µM with CYP24A1 gene expression amounted to 4.4. Besides, the “Product (% total secosteroids)” value at mouse CYP27B1 (0.018 mol/mol phospholipid, 0.8 µM mouse CYP27B1, 20 min, 37 °C) is on record as 21.1 % total secosteroids.
For the molecule `C=C1CC[C@H](O)C/C1=C/C=C1\CCC[C@@]2(C)[C@H]1CC[C@@H]2[C@@](C)(O)CCOC(C)C` [compound 13], the fold induction at 0.1 µM in the data set on CYP24A1 gene expression stood at 0.8. The “conversion to product by CYP27B1, fold higher than 20S(OH)D3” value at mouse CYP27B1 (20 min incubation) was found to be 4.3 fold.
